According to article PMC10150359 (Journal of Medicinal Chemistry, 2023):
Like-named read-outs stand apart in the source and are kept apart here.

Tests used:
[1] = tested on: VSV-G-pseudotype virus (pVSV-G); experiment: microbe, parasite or virus in culture; format: cell-based; details: Vesicular stomatitis virus, read-out: %inh@10 µM (pVSV-G)
[2] = tested on: EBOV-GP-Pseudotype Virus (pEBOV); details: cited from earlier work
[3] = tested on: EBOV-GP-Pseudotype Virus (pEBOV); experiment: microbe, parasite or virus in culture; details: Zaire ebolavirus, HeLa, 48 h, read-out: EC50 (μM) (pEBOV)
[4] = tested on: EBOV-GP-Pseudotype Virus (pEBOV)
[5] = tested on: wild-type Zaire EBOV Mayinga 1976 strain (EBOV May); experiment: microbe, parasite or virus in culture; details: Zaire ebolavirus, Vero C1008, 72 h, read-out: EC50 (μM), replicative EBOV
[6] = tested on: wild-type Zaire EBOV Mayinga 1976 strain (EBOV May)
in vitro [7] = details: chlorocebus sabaeus
in vitro [8] = details: human
hERG potassium channel [9] = target: T1, hERG potassium channel (Homo sapiens, UniProt Q12809); experiment: in vitro; details: pH 7.2
T1 sequence (Q12809 whole entry): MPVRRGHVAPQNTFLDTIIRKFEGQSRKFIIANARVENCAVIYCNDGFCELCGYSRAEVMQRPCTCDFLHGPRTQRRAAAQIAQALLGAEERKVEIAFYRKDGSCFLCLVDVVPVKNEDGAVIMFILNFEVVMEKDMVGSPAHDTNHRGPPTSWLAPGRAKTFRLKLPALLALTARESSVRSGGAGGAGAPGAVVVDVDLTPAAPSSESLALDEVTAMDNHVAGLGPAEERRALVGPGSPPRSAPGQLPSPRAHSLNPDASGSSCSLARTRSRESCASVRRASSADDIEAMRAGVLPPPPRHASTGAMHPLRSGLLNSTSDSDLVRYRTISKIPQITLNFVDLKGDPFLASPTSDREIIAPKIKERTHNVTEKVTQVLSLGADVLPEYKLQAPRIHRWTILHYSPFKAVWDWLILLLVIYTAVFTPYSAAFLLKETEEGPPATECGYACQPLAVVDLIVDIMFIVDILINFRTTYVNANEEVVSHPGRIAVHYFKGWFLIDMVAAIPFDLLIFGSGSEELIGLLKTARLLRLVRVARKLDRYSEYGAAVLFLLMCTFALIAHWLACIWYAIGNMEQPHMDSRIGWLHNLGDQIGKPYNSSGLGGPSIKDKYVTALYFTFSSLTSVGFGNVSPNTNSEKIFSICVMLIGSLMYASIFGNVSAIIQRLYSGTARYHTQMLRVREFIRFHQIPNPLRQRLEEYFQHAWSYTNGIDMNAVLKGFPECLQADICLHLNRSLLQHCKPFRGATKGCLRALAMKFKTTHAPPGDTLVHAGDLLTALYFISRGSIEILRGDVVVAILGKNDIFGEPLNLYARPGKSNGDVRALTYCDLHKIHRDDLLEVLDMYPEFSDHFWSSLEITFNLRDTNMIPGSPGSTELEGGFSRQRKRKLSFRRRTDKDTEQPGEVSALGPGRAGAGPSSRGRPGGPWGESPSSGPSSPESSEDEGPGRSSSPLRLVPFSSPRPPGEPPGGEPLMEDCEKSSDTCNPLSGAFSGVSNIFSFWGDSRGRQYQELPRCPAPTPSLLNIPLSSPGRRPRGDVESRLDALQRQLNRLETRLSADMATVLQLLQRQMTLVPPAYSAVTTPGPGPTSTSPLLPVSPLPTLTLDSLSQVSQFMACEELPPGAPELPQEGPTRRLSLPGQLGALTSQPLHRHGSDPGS

in vitro [10] = details: CD-1, mouse, microsomes, pH 7.4
in vitro [11] = details: human, microsomes, pH 7.4
[12] = male, BALB/c, mouse, in vivo
EBOV-GPcl/NPC1-domain C = EBOV-GPcl/NPC1-domain C (Zaire ebolavirus, UniProt Q05320); format: binding, Homo sapiens
Chain of EBOV-GPcl/NPC1-domain C (Q05320 33-190 limits assumed): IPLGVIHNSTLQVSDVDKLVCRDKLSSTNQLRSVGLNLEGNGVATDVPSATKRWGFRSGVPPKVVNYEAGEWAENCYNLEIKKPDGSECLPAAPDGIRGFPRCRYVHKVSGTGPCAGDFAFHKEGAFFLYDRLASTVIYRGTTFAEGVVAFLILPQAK
Chain of EBOV-GPcl/NPC1-domain C (Q05320 502-676 limits assumed): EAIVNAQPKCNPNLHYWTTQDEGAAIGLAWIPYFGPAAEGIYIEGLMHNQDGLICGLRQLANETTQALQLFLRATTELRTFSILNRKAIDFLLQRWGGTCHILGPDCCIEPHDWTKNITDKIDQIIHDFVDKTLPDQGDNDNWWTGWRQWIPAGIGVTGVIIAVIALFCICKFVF

hERG potassium channel [13] = target: T1, hERG potassium channel
in vivo = details: male, BALB/c, mouse; for Cmax at 24 h: Cmax (ng/mL)
[14] = CD-1, mouse, pH 7.4
[15] = pH 7.4
[16] = ip, 10 mg/kg, Brain-Kp (AUClast)
[17] = po, 50 mg/kg, Brain-Kp (AUClast)

SMILES | inhibition at 10 µM [1] [%] | EC50 [3] [µM] | SI (pEBOV) (CC50/EC50) [4] | EC50 [5] [µM] | SI (CC50/EC50), replicative EBOV [6] | CC50 at 24 h (in vitro [7]) [µM] | CC50 at 24 h (in vitro [8]) [µM] | IC50 (hERG potassium channel [9]) [µM] | half-life at 1 h, 10 µM (in vitro [10]) [min] | half-life at 1 h, 10 µM (in vitro [11]) [min] | loss of binding between EBOV-GPcl/NPC1-domain C (EBOV-GPcl/NPC1-domain C) | cardiotoxicity classification from hERG IC50 (hERG potassium channel [13]) | Kp at 24 h (in vivo; [16]) | Kp at 24 h (in vivo; ip, 10 mg/kg, Brain-Kp (Cmax)) | half-life at 24 h (in vivo; po, 50 mg/kg) [min] | Kp at 24 h (in vivo; [17]) | Kp at 24 h (in vivo; po, 50 mg/kg, Brain-Kp (Cmax)) | CLint (mL/min/mg protein), mouse liver microsomes [14] [mL/min/mg protein] | CLint (mL/min/mg protein), human liver microsomes [15] [mL/min/mg protein] | also measured
O=C(CNCCC1CCN(Cc2ccccc2)CC1)Nn1c2ccccc2c2ccccc21 [Compound 1] | 25 | 0.37 | 19 | 1.5 | 11.0 | – | – | – | – | – | – | – | – | – | – | – | – | – | – | IC50 [2]: 0.37 µM
O=C(CNCCC1CCN(Cc2ccccc2)CC1)NN(c1ccccc1)c1ccccc1 [Compound 10, 2-((2-(1-Benzylpiperidin-4-yl)ethyl)amino)-N′,N′-diphenylacetohydrazide] | 2 | 3.13 | 15 | 1.9 | 16.9 | 32.2 | 48 | – | – | – | – | – | – | – | – | – | – | – | – | –
O=C(CCNCCC1CCN(Cc2ccccc2)CC1)NN(c1ccccc1)c1ccccc1 [Compound 11, 3-((2-(1-Benzylpiperidin-4-yl)ethyl)amino)-N′,N′-diphenylpropanehydrazide] | 50 | 0.05 | – | 0.3 | – | 9.47 | 6 | 16.4 | 26 ± 6 | 45 ± 3 | does it to a lesser extent | not cardiotoxic | 2.04 | 0.18 | 352 | 1.66 | 0.72 | 96 ± 23 | 13 ± 1 | estimated concentration on plasma [12]: 0.62 µM; AUClast ([12]; po, 50 mg/kg, 24 h): 3354.96 ng·h/mL; Cmax ([12]; po, 50 mg/kg, 24 h): 201.45 ng/mL; AUC(0-t) at 24 h (in vivo; po, 50 mg/kg, AUClast (h × ng/mL)): 2020 ng·h/mL; Cmax at 24 h (in vivo; po, 50 mg/kg): 278 ng/mL
O=C(CNCCN1CCN(Cc2ccccc2)CC1)NN(c1ccccc1)c1ccccc1 [Compound 12, 2-((2-(4-Benzylpiperazin-1-yl)ethyl)amino)-N′,N′-diphenylacetohydrazide] | -29 | 2.17 | 63 | 7.8 | 12.9 | 101 | 108 | – | – | – | – | – | – | – | – | – | – | – | – | –
O=C(CCNCCN1CCN(Cc2ccccc2)CC1)NN(c1ccccc1)c1ccccc1 [Compound 13, 3-((2-(4-Benzylpiperazin-1-yl)ethyl)amino)-N′,N′-diphenylpropanehydrazide] | 42 | 0.58 | – | 2.7 | – | 35.5 | 159 | 14.9 | 14 ± 2 | 53 ± 2 | interferes with the NPC1/EBOV-GPcl interaction similarly than our hit 1 (SC816) | not cardiotoxic | 46.4 | 0.99 | 262 | 46.5 | 3.65 | 170 ± 20 | 10.8 ± 0.3 | Cmax ([12]; ip, 10 mg/kg, 24 h): 170.55 ng/mL; half-life at 24 h (in vivo; ip, 10 mg/kg): 46.2 min; Cmax at 24 h (in vivo; ip, 10 mg/kg): 172 ng/mL
